Series [1] concerns MCF-7 cells. Kind of series: Anti-proliferation assay in a MCF-7 cell line expressing P450arom (MTT). Type of series: cell-based, human.
Series [2] deals with T1, P450arom (Homo sapiens, UniProt P11511).
T1 sequence (P11511 1-503): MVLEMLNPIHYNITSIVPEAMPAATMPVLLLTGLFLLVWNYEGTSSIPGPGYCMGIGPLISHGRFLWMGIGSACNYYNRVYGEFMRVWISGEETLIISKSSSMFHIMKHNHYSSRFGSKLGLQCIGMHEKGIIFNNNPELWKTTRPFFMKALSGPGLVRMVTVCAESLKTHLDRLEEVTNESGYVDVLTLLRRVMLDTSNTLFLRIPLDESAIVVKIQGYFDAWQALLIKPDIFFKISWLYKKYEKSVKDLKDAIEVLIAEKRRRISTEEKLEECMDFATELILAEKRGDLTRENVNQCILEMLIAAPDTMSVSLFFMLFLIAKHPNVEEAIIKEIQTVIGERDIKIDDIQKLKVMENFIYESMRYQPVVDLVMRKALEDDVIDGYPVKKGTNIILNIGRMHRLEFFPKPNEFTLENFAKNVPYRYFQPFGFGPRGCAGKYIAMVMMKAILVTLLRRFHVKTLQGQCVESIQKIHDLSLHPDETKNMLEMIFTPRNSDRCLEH
Further details: Crystallization and structural investigation of the full-length native P450arom; from tissue; host or cells: human term placenta (aromatase); liver (CPR, bovine or rat). The note with it: previously determined [51]; cited from earlier work.

Series [3] concerns the target T1, P450arom. Nature of the series: Detergent screen: P450arom enzyme activity and time stability. In kind it is biochemical. Set-up: Crystallization and structural investigation of the full-length native P450arom; from tissue; host or cells: human term placenta (aromatase); liver (CPR, bovine or rat). The note with it: detergent 1-3 mM, exchanged for Em on HA column.

Series [4] concerns the target T1, P450arom. Nature of the series: Absorption spectrum (Soret band) of P450arom-ligand complexes. Set-up: Crystallization and structural investigation of the full-length native P450arom; from tissue. The note with it: absorption spectrum of the P450arom complex.
Series [5] addresses T1, P450arom. Kind of series: Inhibition of P450arom enzyme activity (3H-water release from [1β-3H, 4-14C] androstenedione, enzyme reconstituted with CPR). Type of series: biochemical. Set-up: Crystallization and structural investigation of the full-length native P450arom; from tissue; host or cells: human term placenta (aromatase); liver (CPR, bovine or rat). The note with it: P450arom 20-30 mg/ml, final inhibitor 0.5-1.0 mM, crystallization protocol.

The subject of series [6] is Aromatase. Nature of the series: Assay of enzyme activity (specific activity) of purified aromatase. The note with it: in BNM after detergent exchange. Type of series: biochemical, human.
Series [7] addresses T2, Aromatase (Homo sapiens, UniProt P11511).
T2 construct: Crystallization and structural investigation of the full-length native P450arom; from tissue; host or cells: human term placenta (aromatase); liver (CPR, bovine or rat)
T2 sequence (P11511 1-503): T1 sequence (P11511 1-503)
The description is as above. Type of series: biochemical.

“Also recorded” adds a separate entry of the source.

In the case of 4-hydroxytamoxifen, the “A-stimulated growth of the MCF-7 cells” value in series [1] (androstenedione (A) stimulated) was “decreased”.

For `CCCCCCCCCCCCO[C@@H]1O[C@H](CO)[C@@H](O[C@H]2O[C@H](CO)[C@@H](O)[C@H](O)[C@H]2O)[C@H](O)[C@H]1O` [BDM, n-dodecyl-β-D-maltopyranoside], the “effect of detergent on P450arom activity” value in series [2] is “maintained P450arom activity for weeks at 4 °C”.

For the molecule `CCCCCCCCCO[C@@H]1O[C@H](CO)[C@@H](O[C@H]2O[C@H](CO)[C@@H](O)[C@H](O)[C@H]2O)[C@H](O)[C@H]1O` [BNM, n-nonyl-β-D-maltopyranoside], in series [3], the “effect of detergent on enzyme activity and time stability” value was “maintained enzyme activity and time stability at least as well as BDM; also recorded: maintained the full P450arom activity”.

For the molecule `CCCCCCCCO[C@@H]1O[C@H](CO)[C@@H](O)[C@H](O)[C@H]1O` [BOG, n-octyl-β-D-glucopyranoside], the “effect of detergent on P450arom activity” value in series [2] is listed as “destroy P450arom activity rapidly”.

With `CCCCCCCCO[C@@H]1O[C@H](CO)[C@@H](O[C@H]2O[C@H](CO)[C@@H](O)[C@H](O)[C@H]2O)[C@H](O)[C@H]1O` [BOM, n-octyl-β-D-maltopyranoside], the “effect of detergent on enzyme activity and time stability” value in series [3] is “maintained enzyme activity and time stability at least as well as BDM”.

`CC(C)(C#N)c1cc(Cn2cncn2)cc(C(C)(C)C#N)c1` [anastrozole]: the Soret band in series [4] is on record as 421 nm.

Take `C[C@]12CCC(=O)C=C1CC[C@@H]1[C@@H]2CC[C@]2(C)C(=O)CC[C@@H]12` [androstenedione]: the “growth of the MCF-7 cells” value in series [1] (substrate steroid alone) is “stimulates the growth of the MCF-7 cells in a concentration-dependent manner”. Further, the Soret band in series [4] was 394 nm.

With `N#Cc1ccc(C(c2ccc(C#N)cc2)n2cncn2)cc1` [letrozole], in series [1] (DHEA stimulated MCF-7 cells), the DHEA-stimulated cell growth entry is given as “inhibits the growth of DHEA-stimulated cell growth”. The Soret band in series [4] is given as 421 nm. Moreover, in series [5], the “inhibition of P450arom” value is approximately 100%.

B1: Del38arom: amino-terminal trans-membrane domain deleted P450arom, bacterial expression clone (protein, UniProt P11511 39-503, looked up, fragment)
chain: WNYEGTSSIPGPGYCMGIGPLISHGRFLWMGIGSACNYYNRVYGEFMRVWISGEETLIISKSSSMFHIMKHNHYSSRFGSKLGLQCIGMHEKGIIFNNNPELWKTTRPFFMKALSGPGLVRMVTVCAESLKTHLDRLEEVTNESGYVDVLTLLRRVMLDTSNTLFLRIPLDESAIVVKIQGYFDAWQALLIKPDIFFKISWLYKKYEKSVKDLKDAIEVLIAEKRRRISTEEKLEECMDFATELILAEKRGDLTRENVNQCILEMLIAAPDTMSVSLFFMLFLIAKHPNVEEAIIKEIQTVIGERDIKIDDIQKLKVMENFIYESMRYQPVVDLVMRKALEDDVIDGYPVKKGTNIILNIGRMHRLEFFPKPNEFTLENFAKNVPYRYFQPFGFGPRGCAGKYIAMVMMKAILVTLLRRFHVKTLQGQCVESIQKIHDLSLHPDETKNMLEMIFTPRNSDRCLEH
In series [6], B1 yielded a specific activity of less than 1 nmol/min/mg.

B2: Aromatase: human cytochrome P450 aromatase purified from term placenta, SEQ ID NO:1 (protein, listed as Homo sapiens)
chain: T1 sequence (P11511 1-503)
B2: the turnover number in series [7] (calculated) was approximately 6 min⁻¹. In series [7] (in detergents BNM and BDM, 4° C. for weeks), the specific activity retained is 80-90%. The “specific activity of the purified enzyme” value in series [7] (typical / over a large number of purifications, androstenedione as substrate) was 20 to 100 nmol/min/mg. The specific activity lay within 50 to 100 nmol/min/mg in series [7] (with Em as the detergent) and 10 to 50 nmol/min/mg in series [6].

Source of the values: patent publication US7687252B2, “Protein crystal of human cytochrome P450 aromatase and uses thereof” (Hauptman-Woodward Medcial Research Institute, Inc., priority 2007, dated 2010).
